From patent US6040149A, “Assay for identifying agents which act on the ceramide-activated protein kinase, kinase suppressor of ras, and methods of using said agents” (priority 1997, dated 2000)
Like-named read-outs stand apart in the source and are kept apart here.

Key:
[1] = tested on: ceramide-activated protein kinase; assay: EGFR peptide phosphorylation by kinase in A-431 microsomal membranes / postnuclear supernatant; assay type: biochemical, human (A-431 epidermoid carcinoma cells)
Experimental: Kinetics of ^32 Pi incorporation into the EGFR peptide. […] The reaction was initiated by addition of 50 μl of [γ-^32 P]ATP (150 μM final concentration) and terminated by addition of 50 μl of 0.5 M ATP in 90% (vol/vol) formic acid. Samples were spotted on phosphocellulose paper, washed with 1 M acetic acid/4 mM pyrophosphate, and ^32 P incorporation was measured by liquid-scintillation counting, as described. A boiled protein blank was subtracted from each data value. The data (means) represent duplicate samples from one of two similar experiments. […]
Kinetics of ceramide-induced ^32 Pi incorporation into EGFR peptide. Peptide phosphorylation was done as described in FIG. 2 in the absence (.smallcircle.) or presence (.circle-solid.) of 0.5 μM C8 -ceramide. Phosphorylated peptide was resolved by HPLC. Values (means) represent data from three experiments.
Concentration-dependence of ceramide-induced ^32 Pi incorporation into EGFR peptide. Peptide phosphorylation reactions were done as described for FIG. 2, for 2 minutes, using various concentrations of ceramide (0.001-3 μM). Phosphorylated peptide was resolved by HPLC. Values (means) represent data from three experiments. […]
Phosphorylation was initiated at 22° C. by addition of 50 μl of [γ-^32 P] ATP (150 μM final concentration; 4000 dpm/pmol). For studies with lipid activators, ceramide and other lipids were dried under N2 and resuspended in the kinase assay buffer by bath sonication for 2 minutes at 37° C.
Phosphorylated peptide was quantified by two separate methods. For initial studies, samples were spotted on phosphocellulose paper, washed in 1 M acetic acid/4 mM pyrophosphate and subjected to liquid scintillation counting, according to methods well known to those skilled in the art. Values obtained from a boiled blank or a sample lacking peptide were subtracted from each determination. Alternatively, HPLC was done according to methods well known to those skilled in the art. For these studies, samples were first applied to a C18 Sep-Pak cartridge and eluted with 99.9% acetonitrile/0.1% trifluoroacetic acid. The eluates were lyophilized, resuspended in 6 M guanidine hydrochloride/200 mM Tris, pH 8.5 and applied to a C18 reverse-phase column (Dynamax, 4.6 mm i.d., Rainin, Woburn, Mass.). The peptide was eluted with a linear gradient (1% per minute) of acetonitrile at a flow rate of 1 ml/minute and was detected by measuring the Cerenkov radiation associated with 1-ml fractions.

[2] = tested on: ceramide-activated protein kinase; assay: Ceramide-activated protein kinase activity (EGFR peptide) in EL-4 cell fractions; details: baseline, EL-4 membranes
Experimental: Effect of IL-1β on ceramide-activated protein kinase activity. […] Homogenates were centrifuged at 500×g for 5 minutes to remove nuclei and at 200,000×g for 30 minutes to prepare microsomal membranes. Membranes were resuspended into homogenizing buffer (2.2 μg membrane protein μl^-1). For assay of kinase activity, the reaction mixture contained 20 μl of microsomal membrane, 40 μl EGFR peptide (4 mg ml^-1 in 25 mM Hepes, pH 7.4) and 100 μl buffer (50 mM HEPES, pH 7.4, 20 mM MgCl2). Phosphorylation was initiated at 22° C. by addition of 40 μl [γ-^32 P] ATP (100 μM final concentration) and terminated at the indicated times by addition of 40 μl of 0.5 M ATP in 90% formic acid. Phosphorylated peptide was eluted from a C18 Sep pak cartridge (Millipore), lyophilized, and resolved by C18 reverse phase HPLC using a linear gradient of acetonitrile. […] All assays were performed under conditions determined as linear for time and enzyme concentration. Enzyme activity was determined from the percent conversion of substrate to product and the specific radioactivity of [γ-^32 P] ATP. […] Values (mean±range) represent duplicate determinations from two experiments.
Activity was measured by the transfer of ^32 P from the γ-position of ATP to EGFR peptide (AA 663-681 of the EGFR). The effect of IL-1β on kinase activity was determined using microsomal membranes derived from cells stimulated with IL-1β.

[3] = tested on: ceramide-activated protein kinase; details: nuclei-free supernates, ref. [40], cited from earlier work
[4] = tested on: CAP kinase; assay: Phosphorylation of Raf-1 peptides by CAP kinase; assay type: biochemical, bovine (brain)
[5] = tested on: ceramide-activated protein kinase; assay: CAP kinase activation in HL-60 cells (renaturation and autophosphorylation); assay type: cell-based, human (HL-60 cells)
Experimental: Stimulation of ceramide-activated protein (CAP) kinase by lipid A. On the day of an experiment, HL-60 cells were resuspended (1×10^6 cells ml^-1) into serum-free RPMI 1640 containing 5 μg ml^-1 insulin and transferrin. After 2 h, cells were stimulated with lipid A (Escherichia Coli) or diluent (DMSO, <0.01%). Ceramide-activated protein kinase contained within microsomal membranes was detected by renaturation and autophosphorylation. Briefly, membrane proteins (200 μg per lane) were separated by SDS-PAGE (10%), and the gel was washed with two changes of buffer (50 mM Tris, pH 7.4, 5 mM 2-mercaptoethanol) containing 20% 2-propanol at room temperature for 1 h, and once in buffer without 2-propanol for 1 h. Denaturation was accomplished by incubation of the gel in two changes of 6M guanidinium HCl in wash buffer for 1 h each. Renaturation was accomplished by incubation of the gel overnight at 4° C. in wash buffer containing 0.04% Tween-20. The gel was then equilibrated for 10 min at room temperature in kinase reaction mixture (25 mM HEPES, pH 7.4, 10 mM MgCl2, 0.5 mM EGTA and 5 mM NaF) and [γ-^32 p] ATP (50 μM final concentration; 1000 dpm pmol^-1) was added. Autophosphorylation was terminated by removal of the reaction mixture. The gel was washed with 6 changes of buffer (5% trichloroacetic acid, 1% sodium pyrophosphate) for 2 h and subjected to autoradiography. Top panel--Time course of lipid A activation. Bottom panel--Dose response at 5 minutes of lipid A stimulation. Autoradiograms represent one of three similar studies in both panels A and B.
On the day of an experiment, cells were resuspended (1×10^6 cells ml^-1) into serum-free RPMI 1640 containing 5 μg ml^-1 insulin and transferrin. After 2 h, cells were stimulated with lipid A or diluent (DMSO, <0.01% ). […] The postnuclear supernate was centrifuged at 200,000×g for 30 min and microsomal membranes were resuspended ([…]) into homogenizing buffer. Ceramide-activated protein kinase was detected by renaturation and autophosphorylation. Briefly, membrane proteins (200 μg per lane) were separated by SDS-PAGE (10%), and the gel was washed with two changes of buffer (50 mM Tris, pH 7.4, 5 mM 2-mercaptoethanol) containing 20% 2-propanol at room temperature for 1 h, and once in buffer without 2-propanol for 1 h. Denaturation was accomplished by incubation of the gel in two changes of 6M guanidinium HCl in wash buffer for 1 h each. Renaturation was accomplished by incubation of the gel overnight at 4° C. in wash buffer containing 0.04% Tween-20. The gel was then equilibrated for 10 min at room temperature in kinase reaction mixture (25 mM HEPES, pH 7.4, 10 mM MgCl2, 0.5 mM EGTA and 5 mM NaF) and [γ-^32 P] ATP (50 μM final concentration; 1000 dpm pmol^-1. Autophosphorylation was terminated by removal of the reaction mixture. The gel was washed with 6 changes of buffer (5% trichloracetic acid, 1% sodium pyrophosphate) for 2 h and subjected to autoradiography.
For studies involving activation of ceramide-activated protein kinase by LPS, HL-60 cells (13×10^6 ml^-1) were handled as above, and LPS (Salmonella typhosa, 50 ng ml^-1), recombinant LBP (1.7 μg ml^-1) or both LPS and LBP were added for the times indicated. Isolation of microsomal membranes and autophosphorylation of ceramide-activated protein kinase were performed as above.

[6] = tested on: ceramide-activated protein kinase; assay: Ceramide-activated protein kinase activity toward MBP after HL-60 cell treatment; assay type: cell-based, human (HL-60 cells)
Experimental: Membrane proteins (200 μg) from treated and untreated cells were subjected to SDS-PAGE and kinase activity was renatured as above. Autophosphorylation was allowed to proceed for 10 min and the gel was washed for 20 min with four changes of 50 mM HEPES buffer, pH 7.4. Gel slices were then excised from regions corresponding to 100-110 KDa, crushed, and incubated for 1 h with 10μ MBP (5 mg ml^-1) and 40 μl kinase reaction mixture in the presence of [γ-^32 P]ATP (50 μM final concentration). Reactions were terminated by addition of 10 μl Laemmli buffer, boiling for 3 min, and centrifugation of gel particles. The supernates were subjected to electrophoresis and autoradiography.
Since prior studies correlated enhanced autophosphorylation of ceramide-activated protein kinase with increased kinase activity toward exogenous substrate, the effect of kinase activity toward MBP was examined after treatment of HL-60 cells with lipid A. For these studies, gel slices corresponding to ceramide-activated protein kinase were subjected to autophosphorylation for 10 min in buffer containing ATP (50 μM final concentration), and then were washed and incubated with MBP in a kinase reaction mixture containing [γ-^32 P]ATP [119]. After termination of reactions, samples were subjected electrophoresis and visualized by autoradiography. […] Enhancement of MBP phosphorylation was detectable at 0.5 min of lipid A treatment and maximal at 15 min.

Nc1ncnc2c1ncn2[C@@H]1O[C@H](COP(=O)(O)OP(=O)(O)OP(=O)(O)O)[C@@H](O)[C@H]1O [ATP, adenosine triphosphate]
Km ([1]; 5 minutes, Lineweaver-Burke, read-out: apparent Km (ATP)): 15 µM
Km ([2]; read-out: Km (ATP)): 70 µM
Km ([3]; read-out: Km (ATP)): 15 µM

NH2 -Glu-Leu-Val-Glu-Pro-Leu-Thr-Pro-Ser-Gly-Glu-Ala-Pro-Asn-Gln-Ala-Leu-Leu-Arg-COOH (H-ELVEPLTPSGEAPNQALLR-OH) [EGFR peptide]
apparent Km (EGFR peptide) ([1]; 5 minutes, Lineweaver-Burke): 0.25 mg/mL
apparent Vmax ([1]; EGFR peptide phosphorylation): 100-200 pmol.min^-1.mg of protein^-1
Km (EGFR peptide) [2]: 0.15 mg/mL
maximum reaction velocity [2]: 12.5 pmol min^-1 mg^-1 of microsomal membrane protein
Km (peptide) [3]: 0.25 mg/mL

RQRSTSTPNVHMVSAALPVDSRMIE [AALP (SEQ ID NO: 6)]
phosphorylation of Raf-1 peptide by CAP kinase [4]: failed to phosphorylate

lipid A
maximal activation of ceramide-activated protein kinase ([5]; 500 nM lipid A, of control): 5 fold
earliest detection of increased autophosphorylation ([5]; early kinetics studies): 30 s
concentration of maximal effect ([5]; lipid A): 500 nM
lowest effective concentration ([5]; lipid A): 10 nM
duration of enhanced autophosphorylation ([5]; lipid A 5 μM): 60 min
enhancement of autophosphorylation detected at ([5]; lipid A 5 μM): 5 min
onset of enhanced MBP phosphorylation ([6]; lipid A): 0.5 min
time of maximal MBP phosphorylation ([6]; lipid A): 15 min
enhancement of MBP phosphorylation ([6]; lipid A-treated HL-60 cells): 5 fold
